From patent US20050180944A1, “In situ remediation of waste in farm animal bedding substrates” (priority 2004, published 2005)

What was measured:
pig waste [1] = assay: Seven-day test: bioremediation/degradation of pig waste suspended in water with fatty acid additives; details: 0.1 g fatty acid (0.5 g coated nutrient) per bottle of aqueous pig waste mixture, 2000 ppm ammonium hydroxide, 25 degrees Celsius
Method: A test was performed to determine the relative performance of various additives on the bioremediation or degradation of wastes suspended in water. Measurements of the “biological oxygen demand” (BOD) and “total suspended solids” (TSS) were taken as representative of the progress of the microbial growth and effectiveness of the degradation brought about by the microbes. Approximately five pounds of pig waste was collected from a feedlot and diluted in five gallons of deionized water. The mixture was allowed to sit for 24 hours to insure that the waste formed a uniform mixture. Five hundred milliliters (500 ml) of the aqueous waste mixture was added to each of 13 two-liter glass bottles that were closed with Teflon lined caps. Ammonium hydroxide was added to each container for a final concentration of 2000 ppm. The samples were diluted with water 2:1 and filtered to remove large particulate matter. Various fatty acids and combinations of fatty acids were added to each bottle and the bottles were placed in a tumbler at 25 degrees Celsius. Seven of the bottles were used in a seven-day test and six of the bottles were used in a twelve-day test. Standard EPA test methods were used for all test measurements.

pig waste [2] = assay: BOD and TSS of pig waste samples treated with fatty acids and combinations (test duration not given); set-up: BOD reduction / TSS reduction: concentration or dose not given beside the values; details: treated pig waste sample
Method: A test was performed to determine the relative performance of various additives on the bioremediation or degradation of wastes suspended in water. Measurements of the “biological oxygen demand” (BOD) and “total suspended solids” (TSS) were taken as representative of the progress of the microbial growth and effectiveness of the degradation brought about by the microbes.
Approximately five pounds of pig waste was collected from a feedlot and diluted in five gallons of deionized water. The mixture was allowed to sit for 24 hours to insure that the waste formed a uniform mixture. Five hundred milliliters (500 ml) of the aqueous waste mixture was added to each of 13 two-liter glass bottles that were closed with Teflon lined caps. Ammonium hydroxide was added to each container for a final concentration of 2000 ppm.
The samples were diluted with water 2:1 and filtered to remove large particulate matter. Various fatty acids and combinations of fatty acids were added to each bottle and the bottles were placed in a tumbler at 25 degrees Celsius. Seven of the bottles were used in a seven-day test and six of the bottles were used in a twelve-day test. Standard EPA test methods were used for all test measurements.
BOD (biological oxygen demand) and TSS (total suspended solids) were measured on each sample.

Structure (SMILES) | TSS (total suspended solids) (pig waste [1]) | BOD levels (pig waste [2]) | BOD reduction (pig waste [2]) | TSS levels (pig waste [2]) | TSS reduction (pig waste [2])
CCCCCCCCCCCC(=O)O [Lauric] | 16,040 ppm | – | – | – | –
CCCCC/C=C\C/C=C\CCCCCCCC(=O)O [Linoleic, linoleic acid] | 15,780 ppm | 6102 ppm | 12.2% | 439 ppm | 13.3%
CCCCCCCC/C=C\CCCCCCCC(=O)O [Oleic, oleic acid] | 15,600 ppm | 6050 ppm | 13.0% | 407 ppm | 19.6%
CCCCCCCCCCCCCCCCCC(=O)O [Strearic, stearic acid] | 16,080 ppm | 6660 ppm | 9.5% | 455 ppm | 10.0%
